Measurements from publication PMC6934184, “Selective DNA-PKcs inhibition extends the therapeutic index of localized radiotherapy and chemotherapy” (The Journal of Clinical Investigation, 2019).

Target: T1, KIT Y823D (Homo sapiens, UniProt P10721, Y823D)
T1 construct: purchased Thermo Fisher Scientific (Life Technologies) SelectScreen
Assay: SelectScreen LanthaScreen
Format: binding
Conditions: read-out: % displacement
Method in brief: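 SelectScreen broad panel; activity (Z'LYTE, Adapta) plus binding formats. ATP: Km app for CSF1R Z'LYTE; 10 for CAMK1 Adapta. Readout = % per kinase.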

T1 sequence (P10721 26-976 Y823D): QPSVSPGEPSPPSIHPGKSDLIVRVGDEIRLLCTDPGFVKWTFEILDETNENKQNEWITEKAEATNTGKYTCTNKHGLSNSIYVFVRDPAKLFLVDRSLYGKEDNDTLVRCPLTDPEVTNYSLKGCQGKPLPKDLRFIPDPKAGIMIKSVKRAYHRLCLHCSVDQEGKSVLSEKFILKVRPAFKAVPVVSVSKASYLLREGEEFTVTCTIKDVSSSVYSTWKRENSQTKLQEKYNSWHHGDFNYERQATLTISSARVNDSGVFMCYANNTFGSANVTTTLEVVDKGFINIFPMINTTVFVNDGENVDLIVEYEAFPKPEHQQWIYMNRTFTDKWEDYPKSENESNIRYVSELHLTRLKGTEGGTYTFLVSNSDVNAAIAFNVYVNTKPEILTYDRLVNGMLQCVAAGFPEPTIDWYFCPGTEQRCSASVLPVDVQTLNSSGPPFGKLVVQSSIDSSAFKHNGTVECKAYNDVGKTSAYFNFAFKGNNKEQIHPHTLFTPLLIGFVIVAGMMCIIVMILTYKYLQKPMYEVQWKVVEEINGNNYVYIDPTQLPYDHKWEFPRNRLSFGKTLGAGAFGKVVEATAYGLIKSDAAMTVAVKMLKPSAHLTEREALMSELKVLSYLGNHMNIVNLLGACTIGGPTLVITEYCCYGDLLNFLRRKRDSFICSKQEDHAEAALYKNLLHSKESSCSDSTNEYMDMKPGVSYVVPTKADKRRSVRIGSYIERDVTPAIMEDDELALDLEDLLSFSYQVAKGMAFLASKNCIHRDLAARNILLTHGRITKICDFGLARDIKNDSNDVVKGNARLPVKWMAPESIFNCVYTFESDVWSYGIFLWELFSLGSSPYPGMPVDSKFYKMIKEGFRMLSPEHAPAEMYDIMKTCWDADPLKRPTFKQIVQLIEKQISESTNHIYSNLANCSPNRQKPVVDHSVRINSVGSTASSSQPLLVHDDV

Structure (SMILES): CN(C(=O)CN1CCOCC1)c1ccc2sc3c(-c4cccc5c(=O)cc(N6CC7CCC(C6)O7)oc45)cccc3c2c1 [NU5455]
- inhibition at 1 µM: 5.6%
